The LD50 is the dose expected to kill half of the subjects tested. The IC50 is the concentration at which inhibition is half-maximal.

Where two headings read alike, the source gives them in different places.

The text below walks through data of patent US5869484A, “Phenylcarbamate derivatives suitable to the use as anticholinesterase substances” (priority 1994, dated 1999).

A short description of data set [1]: Acute toxicity (single administration) in rat. The following applies: in vivo.
Data set [2] can be described thus: Acute toxicity (single administration) in mouse. The following applies: in vivo.
A further data set deals with T1, AChE E. eel (Electrophorus electricus, UniProt O42275).
T1 construct: purchased Sigma Chemical
T1 sequence (O42275 24-633): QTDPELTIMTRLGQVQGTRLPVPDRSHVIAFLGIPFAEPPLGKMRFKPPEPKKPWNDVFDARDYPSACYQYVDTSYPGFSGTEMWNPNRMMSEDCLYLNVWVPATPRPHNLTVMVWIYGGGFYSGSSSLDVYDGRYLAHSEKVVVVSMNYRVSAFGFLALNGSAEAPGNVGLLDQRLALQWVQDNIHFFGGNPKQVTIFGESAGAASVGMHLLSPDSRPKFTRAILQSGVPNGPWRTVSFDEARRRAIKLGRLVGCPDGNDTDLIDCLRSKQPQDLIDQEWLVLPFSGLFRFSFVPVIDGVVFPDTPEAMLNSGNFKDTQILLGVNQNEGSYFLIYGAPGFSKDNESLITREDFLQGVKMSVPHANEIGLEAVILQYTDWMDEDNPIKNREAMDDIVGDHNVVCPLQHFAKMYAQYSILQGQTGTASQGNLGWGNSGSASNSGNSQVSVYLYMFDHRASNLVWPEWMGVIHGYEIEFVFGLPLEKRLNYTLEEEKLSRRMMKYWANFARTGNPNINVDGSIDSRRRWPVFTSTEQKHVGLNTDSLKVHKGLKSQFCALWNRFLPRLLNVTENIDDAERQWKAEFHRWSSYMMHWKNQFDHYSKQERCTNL
The data set is described as follows: biochemical. More on the design: species or system Electric Eel. The procedure: (§1) The incubation time between enzyme and product used for the determinations has been 10'.
(§2) The acetylcholinesterase from human erythrocytes (AChE hRBC), the acetylcholinesterase from Electric Eel (AChE E.eel) and the butyrylcholinesterase from human serum (BuChE hserum) coming from the Sigma Chemical have been used.

The next data set addresses T2, BuChE hserum (Homo sapiens, UniProt P06276).
T2 construct: purchased Sigma Chemical; host or cells: human serum
The data set is described as follows: Inhibition of butyrylcholinesterase from human serum (Ellman method). In kind it is biochemical. As to the method:
as §1, §2
(In general: DTNB colorimetry detects thiols as they appear.)

The conditions of data set [3]: prior art; cited from earlier work.
The conditions of data set [4]: prior art, cited from earlier work; for transaminase levels: Eur. Neuropsychopharmacol. 1(3) (1991).
A further data set has as its system acetylcholinesterase. As to conditions: prior art; cited from earlier work.
The subject of data set [5] is amnesic failure induced by scopolamine. The data set is described as follows: Passive Avoidance test, scopolamine-induced amnesic failure, rats. As to conditions: 0.5-1-2-4 mg/kg per os. In kind it is in vivo.
The target of the next data set is T3, AChE hRBC (Homo sapiens, UniProt P22303).
T3 construct: purchased Sigma Chemical; host or cells: human erythrocytes
T3 sequence (P22303 32-617 isoform P22303-2 limits assumed): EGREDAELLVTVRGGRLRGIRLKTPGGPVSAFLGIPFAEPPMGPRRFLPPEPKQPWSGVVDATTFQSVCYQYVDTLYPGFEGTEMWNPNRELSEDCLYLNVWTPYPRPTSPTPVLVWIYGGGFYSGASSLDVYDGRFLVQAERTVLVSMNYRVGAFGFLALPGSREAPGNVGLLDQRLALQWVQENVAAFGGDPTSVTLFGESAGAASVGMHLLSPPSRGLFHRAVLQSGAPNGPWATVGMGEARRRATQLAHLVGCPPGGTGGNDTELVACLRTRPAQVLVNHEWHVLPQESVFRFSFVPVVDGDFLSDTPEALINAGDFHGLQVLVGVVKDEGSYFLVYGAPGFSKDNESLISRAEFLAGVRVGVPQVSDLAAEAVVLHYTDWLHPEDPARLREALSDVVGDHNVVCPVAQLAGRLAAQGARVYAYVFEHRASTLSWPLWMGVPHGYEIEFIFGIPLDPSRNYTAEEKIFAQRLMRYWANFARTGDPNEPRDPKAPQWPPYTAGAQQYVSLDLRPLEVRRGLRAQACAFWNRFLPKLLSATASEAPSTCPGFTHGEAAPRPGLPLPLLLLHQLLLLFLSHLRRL
The data set is described as follows: biochemical. The procedure:
as §1, §2

Data set [6] relates to mental pathologies / Alzheimer's disease. As to conditions: prior art, clinical studies; cited from earlier work.
Setting [7] is: iv, read-out: Toxicity tests (LD50), rat iv.
The mark [8] stands for this setting: po, os, read-out: Toxicity tests (LD50), rat os.
Where [9] appears, read: iv, read-out: Toxicity tests (LD50), mouse iv.
The mark [10] stands for this setting: po, os, read-out: Toxicity tests (LD50), mouse os.

T2 sequence (P06276 29-602): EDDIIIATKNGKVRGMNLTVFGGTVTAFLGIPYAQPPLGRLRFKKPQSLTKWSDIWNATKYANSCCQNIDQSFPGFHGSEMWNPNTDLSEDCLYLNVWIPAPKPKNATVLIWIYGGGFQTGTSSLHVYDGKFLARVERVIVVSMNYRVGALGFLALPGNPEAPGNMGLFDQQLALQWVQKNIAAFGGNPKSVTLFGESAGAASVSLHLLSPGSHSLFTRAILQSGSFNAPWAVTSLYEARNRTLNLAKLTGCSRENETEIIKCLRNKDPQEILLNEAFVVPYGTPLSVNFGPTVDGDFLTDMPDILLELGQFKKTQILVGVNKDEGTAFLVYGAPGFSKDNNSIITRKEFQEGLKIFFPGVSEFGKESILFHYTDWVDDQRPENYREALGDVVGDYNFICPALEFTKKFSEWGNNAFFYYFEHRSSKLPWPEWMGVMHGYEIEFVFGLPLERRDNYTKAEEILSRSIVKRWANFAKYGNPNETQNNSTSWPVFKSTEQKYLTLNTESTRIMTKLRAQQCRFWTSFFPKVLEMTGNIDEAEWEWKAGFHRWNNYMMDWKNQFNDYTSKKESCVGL

On to `CCCCCCCNC(=O)Oc1ccc2c(c1)[C@]1(C)CCN(C)[C@@H]1N2C` [Eptastigmine, heptylcarbamic ester of the eseroline, reference compound], for which the LD50 in data set [1] (setting [7]) stood at 5 mg/kg; in data set [1] (setting [8]) it was 23 mg/kg; in data set [2] (setting [9]), 7 mg/kg; in data set [2] (setting [10]), 25 mg/kg. The IC50 came out at 0.05 µM at AChE E. eel (incubation time 10', read-out: Inhibition of the cholinesterase (IC50 M), AChE E. eel) and 0.14 µM on BuChE hserum. Besides, the pharmacokinetic characteristics result in [3] is recorded as “better pharmacokinetic characteristics”. Further, in data set [4], the side-effects entry is on record as “reduced side-effects”. Besides, the inhibition of acetylcholinesterase entry in the data set on acetylcholinesterase is “less powerful”.

On to `CN(C)CC(C)(C)c1cccc(OC(=O)NCCCCCCCCN2CCOCC2)c1` [Ex. 1, 3-[(1-dimethylamino-2-methyl)prop-2-yl]-N-[8-(4-morpholinyl)octyl]phenylcarbamate], for which the LD50 in data set [1] (setting [8]) came to 33 mg/kg; in [2] (setting [9]), 15 mg/kg; in data set [2] (setting [10]), 67 mg/kg. Besides, the “reduction of amnesic failure induced by scopolamine in the Passive Avoidance test” value in data set [5] is “able to reduce the amnesic failure induced by scopolamine”. The IC50 was found to be 0.16 µM against AChE hRBC, 0.47 µM against AChE E. eel and 0.016 µM against BuChE hserum. Besides, at AChE hRBC (comparison from Table 1), the “potency compared with eptastigmine, physostigmine or tacrine” value is listed as “equal or even superior to that of eptastigmine or of physostigmine”.

In the case of `C[C@@H]1CN(CCCCCCCCNC(=O)Oc2cccc(C(C)(C)CN(C)C)c2)C[C@H](C)O1` [Ex. 2, 3-[(1-dimethylamino-2-methyl)-prop-2-yl]-N-8-[[4-(cis2,6-dimethyl)morpholinyl]octyl]-phenylcarbamate], the LD50 in data set [2] (setting [10]) is above 50 mg/kg. In addition, the IC50 against AChE hRBC was determined as 0.42 µM; at AChE E. eel, 1.1 µM; on BuChE hserum, 0.02 µM.

For the compound `CN(C)CC(C)(C)c1cccc(OC(=O)N(C)c2ccccc2)c1` [Ex. 25, 3-[(1-dimethylamino-2-methyl)prop-2-yl]-N-phenyl-N-methyl-phenylcarbamate], the LD50 in data set [1] (setting [7]) is 14 mg/kg; in data set [1] (setting [8]), 56 mg/kg; in data set [2] (setting [9]), 15 mg/kg. For the same compound, the figures for the IC50 on AChE hRBC and against BuChE hserum were 1.7 µM and above 1000 µM, respectively. The “AChE inhibitory activity and selectivity” value on AChE hRBC (AChE versus BuChE, Table 1) is “potent and selective AChE inhibitory activity”. Also, at BuChE hserum (Table 1), the “activity on the BuChE” value is “poor activity on the BuChE”.

In the case of `CNC(=O)Oc1ccc2c(c1)[C@]1(C)CCN(C)[C@@H]1N2C` [Physostigmine, reference compound], the efficacy in patients result in data set [6] was “beneficial results in the treatment of the patients affected by mental pathologies”. Moreover, the LD50 in [2] (setting [9]) was 0.6 mg/kg; in data set [2] (setting [10]), 3.4 mg/kg. Further, the “potency compared with eptastigmine, physostigmine or tacrine” value on AChE hRBC is reported as “superior to that of tacrine”. Besides, the pharmacokinetic characteristics result in [3] is on record as “unfavourable pharmacokinetic characteristics”. The inhibition of acetylcholinesterase entry in the data set with acetylcholinesterase is listed as “powerful natural inhibitor of the acetylcholinesterase”.

In the case of `Nc1c2c(nc3ccccc13)CCCC2` [Tacrine, 9-amino-1,2,3,4-tetrahydroacridine], in [4], the transaminase levels result is “induce high transaminase levels”.

As to `Nc1c2c(nc3ccccc13)CCCC2O` (stereo not drawn) [Velnacrine], in data set [4], the transaminase levels result is reported as “induce high transaminase levels”.
